Where two headings read alike, the source gives them in different places.
Legend:
[1] = system: Neuroblastoma CHP-212/CRL-2273; assay: CellTiter Glo cell viability assay; assay type: cell-based; settings: Homo sapiens, 11 dilutions 3-0.00001 μM
Protocol: (§1) 1.7*10^3 cells/well were seeded in quadruplicates in 96-well plate after plating. Drugs were added at 5 μM and 2-fold dilutions over 18 concentrations (0.000038146-5 […] range) to generate a dose-response curve. Cell growth was assessed on day 1, 3 and 5 after drug treatments using the CellTiter Glo Luminescence Cell Viability Assay (Promega) according to manufacturer's protocol. Thermo Scientific Varioskan LUX Multimode Microplate instrument was used for plate reading. Data are expressed as mean luminescence (arbitrary units) ±S.D.
(§2) Cell Viability Assays were employed to determine the concentration of Compound 1 (KYN-001) and analogues where the response is reduced by half. For each treatment of cancer cells, 1, 2, 5, 10 and 20 μM solutions of compounds were applied. GraphPad Prism 7 software was used to fit dose response curves. Relative Luminescence Units were plotted against the log values of the doses used and the nonlinear regression model was used for data analysis.
(§3) IC50 (μM) values correspond to log(inhibitor) vs. response (four parameters) and dose-response graphs were generated using GraphPad Prism8.

[2] = system: Neuroblastoma SK-N-FI/CRL-2142; assay: CellTiter Glo cell viability assay; assay type: cell-based; settings: Homo sapiens, 11 dilutions 3-0.00001 μM
Protocol: as §1, §2, §3

[3] = system: Neuroblastoma BE(2)-C/CRL-2268; assay: CellTiter Glo cell viability assay; assay type: cell-based; settings: Homo sapiens, 11 dilutions 3-0.00001 μM
Protocol: as §1, §2, §3

[4] = system: Neuroblastoma SK-N-DZ/CRL-2149; assay: CellTiter Glo cell viability assay; assay type: cell-based; settings: Homo sapiens, 11 dilutions 3-0.00001 μM
Protocol: as §1, §2, §3

[5] = system: Muscle Ewing's Sarcoma A-673/CRL-1598; assay: CellTiter Glo cell viability assay; assay type: cell-based; settings: Homo sapiens, A673, 11 dilutions 3-0.00001 μM
Protocol: as §1, §2, §3

[6] = system: Liver cancer SNU-449/CRL-2234; assay: CellTiter Glo cell viability assay; assay type: cell-based; settings: Homo sapiens, 11 dilutions 3-0.00001 μM
Protocol: as §1, §2, §3

[7] = system: Colon cancer SW620/CCL-227; assay: CellTiter Glo cell viability assay; assay type: cell-based; settings: Homo sapiens, SW-620, 11 dilutions 3-0.00001 μM
Protocol: as §1, §2, §3

[8] = system: Colon cancer HT-29/HTB-38; assay: CellTiter Glo cell viability assay; assay type: cell-based; settings: Homo sapiens, 11 dilutions 3-0.00001 μM
Protocol: as §1, §2, §3

[9] = system: Osteosarcoma MG-63/CRL-1427; assay: CellTiter Glo cell viability assay; assay type: cell-based; settings: Homo sapiens, 11 dilutions 3-0.00001 μM
Protocol: as §1, §2, §3

[10] = system: IL-8 release from IL-17A and TNFα-induced primary human keratinocytes; assay: Keratinocyte IL-8 release (assay number 1250); assay type: cell-based; settings: for EC50 / Emax: Homo sapiens, Keratinocyte; for Max Eff.: IL-8 (1250): highest effect as percentage of control maximum effect; for Emax: read-out: maximum efficacy, IL-8 release
Protocol: Inhibition of IL-8 release from IL-17A and TNFα-induced primary human keratinocytes LEO Pharma Open Innovation assay number 1250 openinnovation.leo-pharma.com
The inflammatory skin disease psoriasis is characterized by cytokines IL-17A and TNFα. In the present assay, primary human keratinocytes are stimulated with a mixture of these cytokines, and the release of IL-8 (also called CXCL8) is measured in the culture supernatant by proximity homogenous time-resolved fluorescence (HTRF).
• Detach the cells as described above. • Resuspend pellet in 10 ml EpiLife Medium with HKGS Kit but without hydrocortisone • Filter the cells though a 37 µm strainer. • Count cells using a cell counter. • Seed Human Epidermal Keratinocytes, adult (HEKa) cells in 384-well view plates 3500 c/w/40 μL. Use cell media with supplement but without hydrocortisone as assay medium. • Place the plates with lids on in a humidity chamber with lid (24.5×24.5 cm box added H2O in the bottom). • Incubate plates over night at 37° C., 5% CO2/95% air.
• Prepare compound-containing source plate, i.e. titrations in DMSO to be transferred to the assay plate. • Empty the assay plate, and re-add 25 μL assay medium. • Add 75 nL compounds and controls from the source plate to the assay plate (with cells). • Add 25 μL assay medium and incubate for 2 hours. • Add 25 μL stimulation mix in assay medium (recombinant human interleukin 17A and Tumor necrosis factor-alpha) to give a final concentration of 10 ng/mL of both cytokines. • Incubate plates at 37° C., 5% CO2/95% air for 3 days.
• Remove plates from incubation and equilibrate to room temperature for 30 minutes. • Transfer 2 μL supernatant to white proxi 384-well plates for IL-8 detection. • Add 2 μL assay medium • Prepare IL-8 HTRF mix (according to manufactory protocol) and add 2 μL pr well. • Seal and incubate for 3 hours and read fluorescence in a plate reader.
IL-8 concentration in the supernatant is measured using homogeneous time-resolved fluorescence resonance (TR-FRET). The assay is quantified by measuring fluorescence at 665 nm (proportional to IL8 concentration) and 620 nm (control). A ratio 665/620*1000 is calculated as a representation of the amount of IL-8 in the supernatant.

Kidney ACHN = assay: CellTiter Glo cell viability assay; assay type: cell-based; settings: Homo sapiens; ACHN/CRL-1611; 11 dilutions 3-0.00001 μM
GBM patient sample BNB04 = assay: Ex vivo GBM 3D spheroid drug response (CellTiter-Glo 3D); assay type: cell-based, human; settings: Homo sapiens, 96 h, 3D spheroids; 4 days post drug treatment
Text: (§4) This project involves an ex vivo drug response screen for 3 ROKiT Pharma test agents and Temozolomide in 3 previously dissociated and cryopreserved GBM samples.
(§5) • 2.1 Three previously processed GBM patient samples were chosen to be used in this study.

GBM patient sample BNA99 = assay: as above; assay type: cell-based, human; settings: 3D spheroids, 4 days post drug treatment
Text: as §4, §5

GBM patient sample BNB18 = assay: as above; assay type: cell-based, human; settings: 3D spheroids, 4 days post drug treatment
Text: as §4, §5

Pancreatic CAPAN-1 = assay: CellTiter Glo cell viability assay; assay type: cell-based; settings: Homo sapiens; Capan-1/HTB-79; 11 dilutions 3-0.00001 μM
[11] = inhibition of IL-8 release, IL-17A and TNFα-induced keratinocytes, read-out: Abs EC50: IL-8 (1250)
[12] = read-out: EC50, inhibition of IL-8 release

| Compound | IC50 [1] [nM] | IC50 [2] [nM] | IC50 [3] [nM] | IC50 [4] [nM] | IC50 [5] [nM] | IC50 [6] [nM] | IC50 [7] [nM] | IC50 [8] [nM] | IC50 [9] [nM] | EC50 [10, 11] [nM] | IC50 (Kidney ACHN) [nM] | Max Eff.: IL-8 (1250) [10] [%] | IC50 (GBM patient sample BNB04) [nM] | IC50 (GBM patient sample BNA99; Homo sapiens, 96 h) [nM] | IC50 (GBM patient sample BNB18; Homo sapiens, 96 h) [nM] | IC50 (Pancreatic CAPAN-1) [nM] | also measured |
| --- | --- | --- | --- | --- | --- | --- | --- | --- | --- | --- | --- | --- | --- | --- | --- | --- | --- |
| COc1cc(/C=C/c2cc(O)cc(OC)c2CC=C(C)C)ccc1O [Compound 1, (E)-3-(4-hydroxy-3-methoxystyryl)-5-methoxy-4-(3-methylbut-2-en-1-yl)phenol] | 28.1 | 116 | 67.1 | 132 | 471 | 81.8 | 121 | 1560 | 44.1 | 80 | 241 | 94 | 10900 | 15000 | 1330 | 2670 |  |
| CCOc1cc(O)cc(/C=C/c2ccc(O)c(O)c2)c1CC=C(C)C [Compound 20, (E)-4-(3-Ethoxy-5-hydroxy-2-(3-methylbut-2-en-1-yl)styryl)benzene-1,2-diol] | 26.1 | 48.5 | 54.8 | 140 | 312 | 64 | 103 | 1990 | 31.3 | 321 | 83.4 | 93 | 23700 | 19100 | 4560 | 2240 |  |
| COc1cc(/C=C/c2cc(O)cc(OC)c2CC=C(C)C)ccc1NC=O [Compound 27, (E)-N-(4-(5-hydroxy-3-methoxy-2-(3-methylbut-2-en-1-yl)styryl)-2-methoxyphenyl)formamide] | 5.7 | 15.7 | 13.6 | 32.6 | 229 | 15.1 | 31.7 | 432 | 82.5 | 46 | 26.7 | 75 | 4310 | 8860 | 630 | 792 | EC50 [10, 12]: 46 nM; Emax [10]: 75%; IC50 (GBM patient sample BNA99): 8870 nM; IC50 (GBM patient sample BNB18): 634 nM |

Now from value to compound, other results behind:

| IC50 [1] [nM] | IC50 [2] [nM] | IC50 [3] [nM] | IC50 [4] [nM] | IC50 [5] [nM] | IC50 [6] [nM] | IC50 [7] [nM] | IC50 [8] [nM] | IC50 [9] [nM] | EC50 [10, 11] [nM] | IC50 (Kidney ACHN) [nM] | Compound | Max Eff.: IL-8 (1250) [10] [%] | IC50 (GBM patient sample BNB04) [nM] | IC50 (GBM patient sample BNA99; Homo sapiens, 96 h) [nM] | IC50 (GBM patient sample BNB18; Homo sapiens, 96 h) [nM] | IC50 (Pancreatic CAPAN-1) [nM] | also measured |
| --- | --- | --- | --- | --- | --- | --- | --- | --- | --- | --- | --- | --- | --- | --- | --- | --- | --- |
| 9.8 | 26.6 | 25.9 | 50.1 | 157 | 32.5 | 35.5 | 939 | 18.2 | 37 | 75.7 | CCOc1cc(O)cc(/C=C/c2ccc(O)c(OC)c2)c1CC=C(C)C [Compound 8, (E)-3-Ethoxy-5-(4-hydroxy-3-methoxystyryl)-4-(3-methylbut-2-en-1-yl)phenol] | 107 |  |  |  | 2320 |  |
| 3 | 9.7 | 11.2 | 16.4 | 112 | 10.2 | 18 | 325 | 4.8 | 44 | 18.8 | CCOc1cc(O)cc(/C=C/c2ccc(NC=O)c(OC)c2)c1CC=C(C)C [Compound 28, (E)-N-(4-(3-Ethoxy-5-hydroxy-2-(3-methylbut-2-en-1-yl)styryl)-2-methoxyphenyl)formamide] | 85 |  |  |  | 735 | reduction of IL-8 release, in words [10]: medium potency reduction of IL-8 release; EC50 [10, 12]: 44 nM; Emax [10]: 85% |
|  |  |  |  |  |  |  |  |  | 364 |  | COc1cc(/C=C/c2cc(O)cc(OC)c2CC=C(C)C)ccc1NC(=O)CN [Compound 31, (E)-2-amino-N-(4-(5-hydroxy-3-methoxy-2-(3-methylbut-2-en-1-yl)styryl)-2-methoxyphenyl)acetamide] | 105 |  |  |  |  |  |
|  |  |  |  |  |  |  |  |  | 2950 |  | CCOc1cc(O)cc(/C=C/c2ccc(NC(=O)C(=O)O)c(OC)c2)c1CC=C(C)C [Compound 35, (E)-2-((4-(3-Ethoxy-5-hydroxy-2-(3-methylbut-2-en-1-yl)styryl)-2-methoxyphenyl)amino)-2-oxoacetic acid] | 77 |  |  |  |  |  |

From patent US20260209152A1, “Substituted Hydroxystilbene Compounds and Derivatives, Synthesis and Uses Thereof” (Kynan Duke IP, LLC, priority 2019, published 2026)
